According to PubChem BioAssay (NCI):
Values joined by “and” are separate entries in the source; they are usually repeats but may differ in a detail not shown here. Identical values can stand only once.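 Compound exposure: 48 hours, 5 concentrations, 96-well plates. GI50 is the concentration that inhibits growth by half. TGI: total growth inhibition.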

How the values were obtained:
Assay in all cases: NCI tumour cell line growth inhibition, 48 h
MDA-N = tested on: MDA-N
LXFL 529 NSCLC = tested on: LXFL 529 NSCLC
M19-MEL melanoma = tested on: M19-MEL melanoma
HOP-18 NSCLC = tested on: HOP-18 NSCLC
DMS 114 small cell lung = tested on: DMS 114 small cell lung
DMS 273 small cell lung = tested on: DMS 273 small cell lung
XF 498 CNS = tested on: XF 498 CNS
P388/ADR leukemia = tested on: P388/ADR leukemia
SNB-78 CNS = tested on: SNB-78 CNS
P388 leukemia = tested on: P388 leukemia
RXF-631 renal = tested on: RXF-631 renal

Structure (SMILES)	TGI (MDA-N)	TGI (LXFL 529 NSCLC)	TGI (M19-MEL melanoma)	TGI (HOP-18 NSCLC)	TGI (DMS 114 small cell lung)	TGI (DMS 273 small cell lung)	TGI (XF 498 CNS)	TGI (SNB-78 CNS)	TGI (RXF-631 renal)	also measured
C=CC(C)(O)/C=C/C=C(\C)C(CC1OC1(C)C)OC(=O)/C(C)=C\C (stereo not drawn)	> 100 µM	–	–	–	–	–	–	–	–	–
COc1ccc2c(c1)C(=O)C(=O)c1cc(O)c(OC)c(OC)c1-2	1.4 µM and 2.55 µM	–	–	–	–	–	–	–	–	GI50 (MDA-N): 1.28 µM
CN(N=O)C(=O)N[C@@H](C=O)[C@@H](O)[C@H](O)[C@H](O)CO	> 750 µM	> 750 µM	629 µM and > 750 µM	216 µM and > 750 µM	599 µM and > 750 µM	575 µM and > 750 µM	> 750 µM	608 µM	–	GI50 (M19-MEL melanoma): 619 µM; GI50 (HOP-18 NSCLC): > 750 µM; GI50 (DMS 114 small cell lung): > 750 µM; GI50 (DMS 273 small cell lung): > 750 µM; GI50 (XF 498 CNS): > 750 µM; TGI (P388/ADR leukemia): 635 µM; TGI (P388 leukemia): > 504 µM
C/C1=C/C2=CC(C)C[C@@H]2C(=O)[C@]2(C)C(=O)CC(C)(C)[C@H]2CC1=O (stereo partly drawn)	> 50 µM	–	–	–	–	–	–	–	–	–
O=c1cccccc1NCCCCCCNc1cccccc1=O	–	> 100 µM	> 100 µM	> 100 µM	> 100 µM	> 100 µM	–	> 100 µM	> 100 µM	–
CC(=O)c1c(C)n(C)c2c1nnc1ccccc12	> 100 µM	–	–	–	–	–	–	–	–	–
O=C(c1ccccc1)c1ccc(OCCOc2ccc(Nc3ccccc3)cc2)cc1	–	> 100 µM	> 100 µM	> 100 µM	> 100 µM	> 100 µM	48.4 µM	> 100 µM	82.8 µM	–
CC/C(=C(/CC)c1ccc([O-])cc1)c1ccc([O-])cc1.CC/C(=C(\CC)c1ccc([O-])cc1)c1ccc([O-])cc1.O=C([CH-]C(=O)c1ccccc1)c1ccccc1.O=C([CH-]C(=O)c1ccccc1)c1ccccc1.O=C([CH-]C(=O)c1ccccc1)c1ccccc1.O=C([CH-]C(=O)c1ccccc1)c1ccccc1.[Ti+4].[Ti+4]	–	–	–	> 100 µM	–	> 100 µM	–	> 100 µM	–	GI50 (HOP-18 NSCLC): 83.4 µM; GI50 (DMS 273 small cell lung): 28.7 µM; GI50 (SNB-78 CNS): 72.4 µM
CN(C)CCNC(=O)Cn1cc([N+](=O)[O-])c(=O)c2ccccc21	> 100 µM	–	–	–	–	–	–	–	–	–
COC1CCC(O)C(/C=C/[N+](=O)[O-])C1 (stereo not drawn)	5.56 µM	–	–	–	–	–	–	–	–	–
CCOC(=O)C1=C(O)CSC1=Nc1ccccc1	–	> 100 µM	> 100 µM	–	–	> 100 µM	–	> 100 µM	> 100 µM	–
CC(=O)c1cccc(NC(=O)C(=O)C(C2OC(=O)c3ccccc32)[N+](=O)[O-])c1 (stereo not drawn)	–	> 100 µM	> 100 µM	–	> 100 µM	–	> 100 µM	> 100 µM	> 100 µM	–
c1ccc(-c2cc(C3CO3)c3ccccc3n2)cc1 (stereo not drawn)	39.4 µM	–	–	–	–	–	–	–	–	–
COc1ccc(C(=O)C(C(=O)C(=O)Nc2ccc(Cl)c(Cl)c2)c2ccc(OC)cc2)cc1 (stereo not drawn)	–	> 100 µM	> 100 µM	> 100 µM	> 100 µM	> 100 µM	> 100 µM	> 100 µM	–	–
CN[C@@H](C)[C@@H](N)c1ccccc1	–	> 100 µM	–	> 100 µM	–	> 100 µM	–	> 100 µM	> 100 µM	–
Cc1ccc(Nc2n[nH]c(=S)s2)cc1	> 100 µM	–	–	–	–	–	–	–	–	–
Cc1ccc(C)c(NC(=O)NCc2ccc(Cl)cc2)c1	> 100 µM	–	–	–	–	–	–	–	–	–
NNC(=S)N/N=C(/C(=O)Nc1cc(Cl)ccc1Cl)C1C(=O)Nc2ccccc2S1=O (stereo not drawn)	–	> 100 µM	> 100 µM	> 100 µM	> 100 µM	–	> 100 µM	> 100 µM	–	–
Cc1cnc(/C=N\NC(N)=S)c2cccc(N)c12	> 100 µM	–	–	–	–	–	–	–	–	–
O=P(NC12CC3CC(CC(C3)C1)C2)(N1CC1)N1CC1	> 100 µM	> 100 µM	> 100 µM	> 100 µM	> 100 µM	> 100 µM	–	> 100 µM	–	–

Structure (SMILES)	TGI (MDA-N)	TGI (LXFL 529 NSCLC)	TGI (M19-MEL melanoma)	TGI (HOP-18 NSCLC)	TGI (DMS 114 small cell lung)	TGI (DMS 273 small cell lung)	TGI (XF 498 CNS)	TGI (SNB-78 CNS)	TGI (RXF-631 renal)	also measured
O=C1N(c2ccccc2)C(=O)C2(SC=NN2Cc2ccccc2)N1c1ccccc1 (stereo not drawn)	–	> 100 µM	> 100 µM	> 100 µM	> 100 µM	–	> 100 µM	> 100 µM	–	–
C1C[S][Ge]2([S]CCO1)[S]CCOCC[S]2	–	> 100 µM	> 100 µM	–	> 100 µM	> 100 µM	> 100 µM	> 100 µM	> 100 µM	GI50 (LXFL 529 NSCLC): > 100 µM; GI50 (M19-MEL melanoma): > 100 µM; GI50 (DMS 114 small cell lung): > 100 µM; GI50 (DMS 273 small cell lung): > 100 µM; GI50 (RXF-631 renal): > 100 µM; GI50 (XF 498 CNS): > 100 µM; GI50 (SNB-78 CNS): > 100 µM
Cc1c(C(=O)C/C(=N/NC(=O)C[n+]2ccccc2)C(=O)Nc2ccccc2)[n+](=O)c2ccccc2n1O	–	> 100 µM	> 100 µM	> 100 µM	> 100 µM	> 100 µM	> 100 µM	> 100 µM	> 100 µM	–
CC(=O)O[C@]1(C)OC(=O)[C@@H](C)N1[N+](=O)[O-]	–	> 100 µM	> 100 µM	> 100 µM	> 100 µM	> 100 µM	–	> 100 µM	–	–
COc1c(NC(C)=O)cc(C)cc1NC(C)=O	–	–	> 100 µM	–	> 100 µM	> 100 µM	> 100 µM	> 100 µM	–	–
O=C([O][Hg][CH2]C1COC([CH2][Hg][O]C(=O)c2ccccc2)CO1)c1ccccc1 (stereo not drawn)	25.5 µM and 11.7 µM	2.86 µM	22.9 µM	23.5 µM	28.8 µM	9.83 µM	31.6 µM	32.6 µM	–	GI50 (LXFL 529 NSCLC): 1.53 µM; GI50 (M19-MEL melanoma): 9.67 µM; GI50 (HOP-18 NSCLC): 10.8 µM; GI50 (DMS 114 small cell lung): 15 µM; GI50 (MDA-N): 12.5 µM and 3 µM; GI50 (DMS 273 small cell lung): 4.51 µM; GI50 (XF 498 CNS): 17.7 µM; GI50 (SNB-78 CNS): 12.2 µM
O=C1C2=Nc3ccccc3C(O)N2c2ccccc21 (stereo not drawn)	3.5 µM	–	–	–	–	–	–	–	–	–
C[C@]12CCc3nonc3C1CC[C@@H]1C2CC[C@]2(C)NC(=O)CCC12 (stereo partly drawn)	–	> 100 µM	> 100 µM	> 100 µM	–	> 100 µM	> 100 µM	> 100 µM	> 100 µM	–
CN=C(NC#N)NCCSCc1nc[nH]c1C	> 100 µM	–	–	–	–	–	–	–	–	–
C/C(=N\N=C(\[Se])N1CCN(c2ccccn2)CC1)c1ccccn1	21 µM	–	–	–	–	–	–	–	–	GI50 (MDA-N): 0.424 µM
CC1(C)CCc2cc3c(cc2O1)OCC1c2cc4c(cc2OC31)OCO4 (stereo not drawn)	–	> 100 µM	> 100 µM	> 100 µM	> 100 µM	–	> 100 µM	–	> 100 µM	–
Cn1nnnc1N/N=C/c1ccccc1	> 10 µM	–	–	–	–	–	–	–	–	–
COc1ccc2c(c1)[n+]([O-])c(-c1ccccc1)c(N)[n+]2[O-]	–	98.7 µM	> 100 µM	97 µM	79.2 µM	> 100 µM	82.6 µM	> 100 µM	–	–
O=C(c1cc2ccccc2o1)N(Cc1ccccc1)c1ccccc1	–	> 100 µM	51.4 µM	65.9 µM	44.2 µM	> 100 µM	41.8 µM	> 100 µM	> 100 µM	–
CN(C)CCOc1ccc(/C(=C(/CCCl)c2ccccc2)c2ccccc2)cc1	30.2 µM	–	–	–	–	–	–	–	–	–
CC(C)(C)CC(C)(C)c1cc2c(O)c(c1)Cc1cc(C(C)(C)CC(C)(C)C)cc(c1O)Cc1cc(C(C)(C)CC(C)(C)C)cc(c1O)Cc1cc(C(C)(C)CC(C)(C)C)cc(c1O)Cc1cc(C(C)(C)CC(C)(C)C)cc(c1O)Cc1cc(C(C)(C)CC(C)(C)C)cc(c1O)C2	–	> 100 µM	> 100 µM	–	> 100 µM	> 100 µM	> 100 µM	> 100 µM	> 100 µM	–
COC(=O)C1=C(C(=O)OC)C23CC1C1C(C(=O)OC)=C(C(=O)OC)C12C1C=CC3C2C(=O)OC(=O)C21 (stereo not drawn)	–	> 100 µM	> 100 µM	–	80.3 µM	> 100 µM	> 100 µM	> 100 µM	> 100 µM	–
CN(C)c1ccc(/C=C2\N=C(c3ccc([N+](=O)[O-])cc3)OC2=O)cc1	> 100 µM	–	–	–	–	–	–	–	–	–
O=C(O)CCC(=O)c1ccc2ccc3cccc4ccc1c2c34	> 100 µM	–	–	–	–	–	–	–	–	–
O=C1OCCC1C(O)C1c2ccccc2-c2ccccc21 (stereo not drawn)	–	> 100 µM	> 100 µM	–	> 100 µM	–	> 100 µM	> 100 µM	–	–
